Active and inactive are the calls of the source.
Test system: Mus musculus
Experiment: Toxicity against CD1 mouse assessed as limbic/striatal stereotypies at 30 mg/kg, po at 240 mins by Irwin test
Format: organism-based
Design: dose 30 mg/kg, route oral
Conditions: in vivo, 4 h

SMILES | Activity
NC(=O)c1ccn(-c2cccc(OC(=O)NCCCCCCc3ccccc3)c2)c1 | Toxic
Cc1cc(C(N)=O)c(-c2cccc(OC(=O)NCCCCCCc3ccccc3)c2)o1 | Non-toxic

Test system: Mus musculus
Experiment: Toxicity against CD1 mouse assessed as limbic/striatal stereotypies at 10 mg/kg, po at 60 mins by Irwin test
Format: organism-based
Design: dose 10 mg/kg, route oral
Conditions: in vivo, 1 h

SMILES | Activity
NC(=O)c1ccn(-c2cccc(OC(=O)NCCCCCCc3ccccc3)c2)c1 | Toxic
Cc1cc(C(N)=O)c(-c2cccc(OC(=O)NCCCCCCc3ccccc3)c2)o1 | Toxic

Target: T1, Fatty-acid amide hydrolase 1 (Mus musculus) (UniProt O08914)
T1 sequence (whole entry): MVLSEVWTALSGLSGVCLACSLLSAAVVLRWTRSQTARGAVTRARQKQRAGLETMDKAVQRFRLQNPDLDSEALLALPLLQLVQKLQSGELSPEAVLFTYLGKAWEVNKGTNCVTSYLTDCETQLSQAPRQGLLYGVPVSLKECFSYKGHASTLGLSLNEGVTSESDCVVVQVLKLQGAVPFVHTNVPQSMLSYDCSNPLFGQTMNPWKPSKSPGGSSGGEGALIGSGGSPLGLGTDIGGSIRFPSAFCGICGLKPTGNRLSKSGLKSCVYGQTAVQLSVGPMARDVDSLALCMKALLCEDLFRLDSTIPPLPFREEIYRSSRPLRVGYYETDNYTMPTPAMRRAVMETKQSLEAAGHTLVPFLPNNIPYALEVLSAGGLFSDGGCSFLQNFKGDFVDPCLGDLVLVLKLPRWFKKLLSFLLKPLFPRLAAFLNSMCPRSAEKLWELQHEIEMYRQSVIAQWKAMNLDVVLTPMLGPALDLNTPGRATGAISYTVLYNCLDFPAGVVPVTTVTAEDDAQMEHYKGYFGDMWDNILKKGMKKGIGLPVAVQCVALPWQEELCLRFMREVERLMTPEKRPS
Experiment: Non-competitive inhibition of mouse FAAH isolated from brain homogenate using [3H-ethanolamine]AEA as substrate by Lineweaver-Burk plot analysis
Conditions: not given

SMILES | inhibition
NC(=O)c1ccn(-c2cccc(OC(=O)NCCCCCCc3ccccc3)c2)c1 | Active

Target: Cannabinoid receptor 1 (Mus musculus) (UniProt P47746)
Experiment: Displacement of [3H]CP55.940 from CB1 receptor in mouse brain fraction
Format: tissue-based
Conditions: not given

Cannabinoid receptor 1 (Mus musculus), sequence (P47746 whole entry): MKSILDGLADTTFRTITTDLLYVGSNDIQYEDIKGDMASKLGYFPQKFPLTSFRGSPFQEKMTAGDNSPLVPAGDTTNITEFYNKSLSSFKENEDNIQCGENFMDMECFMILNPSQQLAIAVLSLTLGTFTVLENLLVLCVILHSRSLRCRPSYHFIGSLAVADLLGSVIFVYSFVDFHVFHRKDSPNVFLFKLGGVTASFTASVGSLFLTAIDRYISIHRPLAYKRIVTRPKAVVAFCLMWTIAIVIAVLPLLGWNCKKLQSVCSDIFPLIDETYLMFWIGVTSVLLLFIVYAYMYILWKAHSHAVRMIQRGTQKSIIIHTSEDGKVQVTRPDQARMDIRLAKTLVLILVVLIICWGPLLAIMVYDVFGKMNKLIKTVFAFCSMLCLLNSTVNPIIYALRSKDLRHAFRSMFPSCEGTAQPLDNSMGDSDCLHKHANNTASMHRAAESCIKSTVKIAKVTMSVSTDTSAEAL

SMILES | Activity
NC(=O)c1ccn(-c2cccc(OC(=O)NCCCCCCc3ccccc3)c2)c1 | inactive
Cc1cc(C(N)=O)c(-c2cccc(OC(=O)NCCCCCCc3ccccc3)c2)o1 | inactive

Test system: Mus musculus
Experiment: Toxicity against CD1 mouse assessed as limbic/striatal stereotypies at 100 mg/kg, po at 60 mins by Irwin test
Format: organism-based
Design: dose 100 mg/kg, route oral
Conditions: in vivo, 1 h

SMILES | Activity
NC(=O)c1ccn(-c2cccc(OC(=O)NCCCCCCc3ccccc3)c2)c1 | Toxic
Cc1cc(C(N)=O)c(-c2cccc(OC(=O)NCCCCCCc3ccccc3)c2)o1 | Toxic

Test system: Rattus norvegicus
Experiment: Analgesic activity in rat assessed as increase in paw withdrawal threshold at 10 mg/kg, po
Format: functional, organism-based
Design: dose 10 mg/kg
Conditions: not given

SMILES | Activity
NC(=O)c1ccn(-c2cccc(OC(=O)NCCCCCCc3ccccc3)c2)c1 | inactive
Cc1cc(C(N)=O)c(-c2cccc(OC(=O)NCCCCCCc3ccccc3)c2)o1 | inactive

Organism: Mus musculus
Experiment: Inhibition of DAGL-mediated 2AG synthesis in mouse brain homogenate using […] as substrate incubated for 20 mins prior to substrate addition
Format: tissue-based
Conditions: not given

SMILES | inhibition
NC(=O)c1ccn(-c2cccc(OC(=O)NCCCCCCc3ccccc3)c2)c1 | inactive
Cc1cc(C(N)=O)c(-c2cccc(OC(=O)NCCCCCCc3ccccc3)c2)o1 | inactive

Test system: Mus musculus
Experiment: Toxicity against CD1 mouse assessed as limbic/striatal stereotypies at 100 mg/kg, po at 240 mins by Irwin test
Format: organism-based
Design: dose 100 mg/kg, route oral
Conditions: in vivo, 4 h

SMILES | Activity
NC(=O)c1ccn(-c2cccc(OC(=O)NCCCCCCc3ccccc3)c2)c1 | Toxic
Cc1cc(C(N)=O)c(-c2cccc(OC(=O)NCCCCCCc3ccccc3)c2)o1 | Non-toxic

Test system: Mus musculus
Experiment: Toxicity against CD1 mouse assessed as limbic/striatal stereotypies at 10 mg/kg, po at 240 mins by Irwin test
Format: organism-based
Design: dose 10 mg/kg, route oral
Conditions: in vivo, 4 h

SMILES | Activity
NC(=O)c1ccn(-c2cccc(OC(=O)NCCCCCCc3ccccc3)c2)c1 | Toxic
Cc1cc(C(N)=O)c(-c2cccc(OC(=O)NCCCCCCc3ccccc3)c2)o1 | Non-toxic

Test system: Rattus norvegicus
Experiment: Analgesic activity in rat assessed as increase in paw withdrawal threshold at 100 mg/kg, po
Format: functional, organism-based
Design: dose 100 mg/kg
Conditions: not given

SMILES | Activity
NC(=O)c1ccn(-c2cccc(OC(=O)NCCCCCCc3ccccc3)c2)c1 | Active
Cc1cc(C(N)=O)c(-c2cccc(OC(=O)NCCCCCCc3ccccc3)c2)o1 | Active

Test system: Mus musculus
Experiment: Toxicity against CD1 mouse assessed as limbic/striatal stereotypies at 30 mg/kg, po at 60 mins by Irwin test
Format: organism-based
Design: dose 30 mg/kg, route oral
Conditions: in vivo, 1 h

SMILES | Activity
NC(=O)c1ccn(-c2cccc(OC(=O)NCCCCCCc3ccccc3)c2)c1 | Toxic
Cc1cc(C(N)=O)c(-c2cccc(OC(=O)NCCCCCCc3ccccc3)c2)o1 | Toxic

Test system: Mus musculus
Experiment: Anxiolytic activity in mouse at 3 mg/kg, po measured for 5 mins by elevated plus maze test
Format: organism-based
Design: dose 3 mg/kg, route oral
Conditions: in vivo

SMILES | Activity
NC(=O)c1ccn(-c2cccc(OC(=O)NCCCCCCc3ccccc3)c2)c1 | Non-toxic
Cc1cc(C(N)=O)c(-c2cccc(OC(=O)NCCCCCCc3ccccc3)c2)o1 | Non-toxic

Target: T2, Fatty-acid amide hydrolase 1 (Homo sapiens, UniProt O00519)
T2 sequence (O00519 whole entry): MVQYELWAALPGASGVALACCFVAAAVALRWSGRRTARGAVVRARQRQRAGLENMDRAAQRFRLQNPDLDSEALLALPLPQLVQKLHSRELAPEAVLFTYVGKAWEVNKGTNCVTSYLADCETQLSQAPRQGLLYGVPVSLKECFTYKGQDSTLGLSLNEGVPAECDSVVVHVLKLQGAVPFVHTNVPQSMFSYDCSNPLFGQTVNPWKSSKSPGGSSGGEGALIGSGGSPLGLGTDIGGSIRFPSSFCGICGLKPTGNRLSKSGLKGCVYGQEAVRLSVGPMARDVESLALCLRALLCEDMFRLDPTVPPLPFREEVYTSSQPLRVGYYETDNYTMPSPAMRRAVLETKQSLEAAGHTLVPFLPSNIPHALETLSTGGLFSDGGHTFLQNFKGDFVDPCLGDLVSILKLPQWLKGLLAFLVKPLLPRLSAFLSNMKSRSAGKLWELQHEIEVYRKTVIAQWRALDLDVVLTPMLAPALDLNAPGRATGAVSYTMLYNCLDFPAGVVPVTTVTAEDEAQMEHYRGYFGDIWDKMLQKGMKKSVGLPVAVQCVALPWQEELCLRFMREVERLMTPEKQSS
Experiment: Inhibition of human recombinant FAAH
Conditions: not given

SMILES | IC50
Cc1cc(C(N)=O)c(-c2cccc(OC(=O)NCCCCCCc3ccccc3)c2)o1 | 102 nM

Target: T1, Fatty-acid amide hydrolase 1 (Mus musculus)
Experiment: Reversible inhibition of mouse FAAH isolated from brain homogenate using [3H-ethanolamine]AEA as substrate incubated for 20 mins prior to substrate addition measured after 18 hrs by […] method
Conditions: not given

SMILES | inhibition
NC(=O)c1ccn(-c2cccc(OC(=O)NCCCCCCc3ccccc3)c2)c1 | Active

Target: Voltage-gated inwardly rectifying potassium channel KCNH2 (Homo sapiens, UniProt Q12809)
Experiment: Inhibition of human ERG expressed in CHOK1 cells for 5 mins by automated patch clamp assay
Format: cell-based, CHO-K1
Conditions: not given

Voltage-gated inwardly rectifying potassium channel KCNH2, sequence (Q12809 whole entry): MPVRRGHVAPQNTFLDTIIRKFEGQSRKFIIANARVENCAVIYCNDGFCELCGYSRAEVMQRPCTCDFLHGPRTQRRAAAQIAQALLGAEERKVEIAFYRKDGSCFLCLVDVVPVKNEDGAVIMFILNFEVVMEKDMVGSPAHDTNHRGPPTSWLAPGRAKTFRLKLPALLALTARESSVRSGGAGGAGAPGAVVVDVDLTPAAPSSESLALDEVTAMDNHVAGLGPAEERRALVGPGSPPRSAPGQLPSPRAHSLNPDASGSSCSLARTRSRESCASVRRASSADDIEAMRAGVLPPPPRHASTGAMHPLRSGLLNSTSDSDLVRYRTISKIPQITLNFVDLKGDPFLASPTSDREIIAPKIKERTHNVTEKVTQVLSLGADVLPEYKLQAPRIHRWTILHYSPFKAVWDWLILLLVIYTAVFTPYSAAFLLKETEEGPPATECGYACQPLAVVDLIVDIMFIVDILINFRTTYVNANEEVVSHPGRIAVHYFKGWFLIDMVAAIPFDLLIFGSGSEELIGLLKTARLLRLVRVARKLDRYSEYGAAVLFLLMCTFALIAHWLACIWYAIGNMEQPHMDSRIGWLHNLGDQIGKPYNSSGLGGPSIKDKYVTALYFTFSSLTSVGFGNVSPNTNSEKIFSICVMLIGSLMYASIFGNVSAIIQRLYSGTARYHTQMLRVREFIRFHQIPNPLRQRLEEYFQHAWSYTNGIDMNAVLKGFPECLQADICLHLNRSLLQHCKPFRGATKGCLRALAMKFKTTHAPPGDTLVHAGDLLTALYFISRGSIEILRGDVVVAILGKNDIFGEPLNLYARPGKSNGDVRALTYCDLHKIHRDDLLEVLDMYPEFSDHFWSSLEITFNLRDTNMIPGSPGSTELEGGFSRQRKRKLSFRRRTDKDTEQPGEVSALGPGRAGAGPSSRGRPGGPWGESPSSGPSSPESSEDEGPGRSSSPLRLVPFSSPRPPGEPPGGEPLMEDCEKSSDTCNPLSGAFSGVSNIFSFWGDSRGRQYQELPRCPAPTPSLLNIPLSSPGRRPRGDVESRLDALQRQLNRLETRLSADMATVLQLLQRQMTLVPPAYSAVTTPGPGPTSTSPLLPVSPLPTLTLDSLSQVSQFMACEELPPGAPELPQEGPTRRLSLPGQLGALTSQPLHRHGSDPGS

SMILES | IC50
NC(=O)c1ccn(-c2cccc(OC(=O)NCCCCCCc3ccccc3)c2)c1 | > 10000 nM
Cc1cc(C(N)=O)c(-c2cccc(OC(=O)NCCCCCCc3ccccc3)c2)o1 | > 10000 nM

Target: T3, Fatty-acid amide hydrolase 1 (Mus musculus, UniProt O08914)
T3 sequence (O08914 whole entry): T1 sequence (whole entry)
Experiment: Inhibition of mouse FAAH isolated from brain homogenate using [3H-ethanolamine]AEA as substrate incubated for 20 mins prior to substrate addition measured after 15 mins by beta counting analysis
Conditions: not given

SMILES | IC50 | Ki
NC(=O)c1ccn(-c2cccc(OC(=O)NCCCCCCc3ccccc3)c2)c1 | 0.6 nM | 0.16 nM
Cc1cc(C(N)=O)c(-c2cccc(OC(=O)NCCCCCCc3ccccc3)c2)o1 | 1.7 nM | 0.49 nM

Test system: Mus musculus
Experiment: Anxiolytic activity in mouse at 30 mg/kg, po measured for 5 mins by elevated plus maze test
Format: organism-based
Design: dose 30 mg/kg, route oral
Conditions: in vivo

SMILES | Activity
NC(=O)c1ccn(-c2cccc(OC(=O)NCCCCCCc3ccccc3)c2)c1 | Non-toxic
Cc1cc(C(N)=O)c(-c2cccc(OC(=O)NCCCCCCc3ccccc3)c2)o1 | Non-toxic

Test system: Mus musculus
Experiment: Anxiolytic activity in mouse at 10 mg/kg, po measured for 5 mins by elevated plus maze test
Format: organism-based
Design: dose 10 mg/kg, route oral
Conditions: in vivo

SMILES | Activity
NC(=O)c1ccn(-c2cccc(OC(=O)NCCCCCCc3ccccc3)c2)c1 | Non-toxic
Cc1cc(C(N)=O)c(-c2cccc(OC(=O)NCCCCCCc3ccccc3)c2)o1 | Non-toxic

Target: Cannabinoid receptor 2 (Mus musculus) (UniProt P47936)
Experiment: Displacement of [3H]CP55.940 from CB2 receptor in mouse spleen fraction
Format: tissue-based
Conditions: not given

Cannabinoid receptor 2 (Mus musculus), sequence (P47936 whole entry): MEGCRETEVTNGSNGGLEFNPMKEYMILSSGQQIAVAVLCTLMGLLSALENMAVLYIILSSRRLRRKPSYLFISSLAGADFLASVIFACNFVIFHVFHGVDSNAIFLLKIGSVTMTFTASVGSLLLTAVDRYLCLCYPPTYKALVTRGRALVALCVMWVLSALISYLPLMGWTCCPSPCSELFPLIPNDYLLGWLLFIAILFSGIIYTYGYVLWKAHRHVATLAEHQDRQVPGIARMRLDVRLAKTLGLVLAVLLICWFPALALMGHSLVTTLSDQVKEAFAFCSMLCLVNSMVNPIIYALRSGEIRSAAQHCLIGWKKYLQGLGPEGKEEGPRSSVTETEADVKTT

SMILES | Activity
NC(=O)c1ccn(-c2cccc(OC(=O)NCCCCCCc3ccccc3)c2)c1 | inactive
Cc1cc(C(N)=O)c(-c2cccc(OC(=O)NCCCCCCc3ccccc3)c2)o1 | inactive

Test system: Rattus norvegicus
Experiment: Analgesic activity in rat assessed as increase in paw withdrawal threshold at 30 mg/kg, po
Format: functional, organism-based
Design: dose 30 mg/kg
Conditions: not given

SMILES | Activity
NC(=O)c1ccn(-c2cccc(OC(=O)NCCCCCCc3ccccc3)c2)c1 | Active
Cc1cc(C(N)=O)c(-c2cccc(OC(=O)NCCCCCCc3ccccc3)c2)o1 | Active

Target: T4, Monoglyceride lipase (Mus musculus) (UniProt O35678)
T4 sequence (whole entry): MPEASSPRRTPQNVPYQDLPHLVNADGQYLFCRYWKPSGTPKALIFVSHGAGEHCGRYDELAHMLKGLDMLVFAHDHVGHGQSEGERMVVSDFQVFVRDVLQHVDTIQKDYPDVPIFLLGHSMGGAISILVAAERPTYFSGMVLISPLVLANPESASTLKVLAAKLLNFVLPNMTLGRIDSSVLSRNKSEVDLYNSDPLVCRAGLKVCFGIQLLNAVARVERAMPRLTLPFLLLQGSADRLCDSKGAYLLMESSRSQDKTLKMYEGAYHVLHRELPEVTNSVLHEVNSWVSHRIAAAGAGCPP
Experiment: Inhibition of MAGL-mediated 2AG hydrolysis in mouse brain homogenate using [3H]2OG as substrate incubated for 20 mins prior to substrate addition
Format: tissue-based
Conditions: not given

SMILES | inhibition
NC(=O)c1ccn(-c2cccc(OC(=O)NCCCCCCc3ccccc3)c2)c1 | inactive
Cc1cc(C(N)=O)c(-c2cccc(OC(=O)NCCCCCCc3ccccc3)c2)o1 | inactive

Target: Transient receptor potential cation channel subfamily V member 1 (Mus musculus) (UniProt Q704Y3)
Experiment: Displacement of [3H]RTX from TRPV1 receptor in mouse brain fraction
Format: tissue-based
Conditions: not given

Transient receptor potential cation channel subfamily V member 1 (Mus musculus), sequence (Q704Y3 whole entry): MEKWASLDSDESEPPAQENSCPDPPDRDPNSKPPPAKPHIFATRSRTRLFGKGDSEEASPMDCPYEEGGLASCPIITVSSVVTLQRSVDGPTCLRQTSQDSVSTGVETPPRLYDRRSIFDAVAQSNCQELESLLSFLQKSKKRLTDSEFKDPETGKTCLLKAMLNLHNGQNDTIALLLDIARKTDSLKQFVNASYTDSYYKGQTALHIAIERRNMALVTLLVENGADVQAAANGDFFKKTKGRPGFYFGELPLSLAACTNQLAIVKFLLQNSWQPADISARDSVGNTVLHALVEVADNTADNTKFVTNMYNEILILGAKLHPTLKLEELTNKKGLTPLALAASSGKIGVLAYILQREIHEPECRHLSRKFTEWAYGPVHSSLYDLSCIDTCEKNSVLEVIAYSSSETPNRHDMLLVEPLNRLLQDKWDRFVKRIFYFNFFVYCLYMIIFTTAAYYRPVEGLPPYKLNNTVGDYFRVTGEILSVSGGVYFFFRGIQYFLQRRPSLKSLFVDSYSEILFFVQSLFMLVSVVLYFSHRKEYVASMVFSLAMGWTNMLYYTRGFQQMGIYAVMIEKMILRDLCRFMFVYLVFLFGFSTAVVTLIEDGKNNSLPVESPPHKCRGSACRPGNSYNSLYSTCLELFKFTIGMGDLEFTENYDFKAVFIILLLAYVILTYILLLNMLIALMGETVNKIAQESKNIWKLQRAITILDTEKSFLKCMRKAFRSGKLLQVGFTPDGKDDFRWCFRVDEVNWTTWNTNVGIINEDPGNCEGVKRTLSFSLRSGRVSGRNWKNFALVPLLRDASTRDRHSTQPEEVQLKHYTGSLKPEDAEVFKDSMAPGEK

SMILES | Activity
NC(=O)c1ccn(-c2cccc(OC(=O)NCCCCCCc3ccccc3)c2)c1 | inactive
Cc1cc(C(N)=O)c(-c2cccc(OC(=O)NCCCCCCc3ccccc3)c2)o1 | inactive

Target: T5, N-acyl-phosphatidylethanolamine-hydrolyzing phospholipase D (Mus musculus) (UniProt Q8BH82)
T5 sequence (whole entry): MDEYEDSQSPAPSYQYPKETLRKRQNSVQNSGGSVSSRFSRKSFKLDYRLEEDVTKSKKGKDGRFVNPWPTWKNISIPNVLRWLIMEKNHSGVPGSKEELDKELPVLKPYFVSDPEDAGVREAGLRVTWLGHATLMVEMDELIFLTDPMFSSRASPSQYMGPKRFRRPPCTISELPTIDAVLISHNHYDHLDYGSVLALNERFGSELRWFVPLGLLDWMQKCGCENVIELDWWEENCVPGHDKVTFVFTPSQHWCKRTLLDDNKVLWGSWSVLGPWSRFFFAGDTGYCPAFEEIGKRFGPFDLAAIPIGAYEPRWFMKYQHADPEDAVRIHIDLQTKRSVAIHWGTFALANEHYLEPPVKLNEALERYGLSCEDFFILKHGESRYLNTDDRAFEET
Experiment: Inhibition of NAPE-PLD-meidated AEA synthesis in mouse brain homogenate using [3H]NArPE as substrate incubated for 20 mins prior to substrate addition
Format: tissue-based
Conditions: not given

SMILES | inhibition
NC(=O)c1ccn(-c2cccc(OC(=O)NCCCCCCc3ccccc3)c2)c1 | inactive
Cc1cc(C(N)=O)c(-c2cccc(OC(=O)NCCCCCCc3ccccc3)c2)o1 | inactive

From ChEMBL document CHEMBL2163339, “Discovery of potent inhibitors of human and mouse fatty acid amide hydrolases” (J Med Chem, 2012)
